Measurements from article PMC9281569, “Two HCN4 Channels Play Functional Roles in the Zebrafish Heart” (Frontiers in Physiology, 2022).

Legend:
[1] = system: developing zebrafish embryos; assay: Antisense morpholino knockdown: heart rate of zebrafish embryos; assay type: in vivo, zebrafish (Danio rerio); settings: 200 μM MO into 1-cell embryos
Procedure: The heart rate of zebrafish embryos was measured under an Olympus MVX10 microscope at room temperature. After zebrafish embryos were acclimated to the new environment (room temperature, light), heart rate was counted by eye.
(§1) Morpholino antisense oligos (MO) were purchased from Gene Tools (Philomath, OR, United States) ([Fujii et al., 2020]). Zebrafish 1-cell embryos were injected with approximately 5 nL of MO solution at a concentration of 200 μM (approximately 10 ng/embryo).
Since DrHCN4 and DrHCN4L have similar sensitivities to the HCN inhibitors, individual gene knockdowns would be required for evaluating each channel’s role in heart rate regulation. Before knocking down each gene, we first confirmed that both HCN4 channels (DrHCN4 and DrHCN4L) were expressed in day 1, day 3, and day 7 embryos and in the heart and brain of adult fish (Figure 6A). We next investigated whether the knockdown of each gene affects heart rate in zebrafish. The expression of each gene was knocked down by using antisense morpholino (MO), which is commonly used in zebrafish ([Blum et al., 2015]; [Jou et al., 2017]; [Fujii et al., 2020]). MO solutions were injected into 1-cell embryos of zebrafish. […] Embryos were injected with control MO, DrHCN4 MO, and DrHCN4L MO at concentrations of 200 μM or with a mixture of DrHCN4 MO and DrHCN4L MO (200 μM for each). At 24 h after injection of MO, there was a slight decrease of heart rate in embryos injected with DrHCN4 MO (44 ± 2 bpm, p = 0.049) and DrHCN4L MO (45 ± 2 bpm, p = 0.092) compared to the heart rate in embryos injected with control MO (54 ± 1 bpm). […] After 48 h, heart rate was considerably lower in all three groups compared to that in the control group (135 ± 4 bpm): DrHCN4 MO (110 ± 3 bpm, p < 0.001), DrHCN4L MO (111 ± 1 bpm, p = 0.001), and mixture of DrHCN4 MO and DrHCN4L MO (116 ± 7 bpm, p = 0.014). However, at 72 h after MO injection, heart rate in all three groups had returned to the same level as that in the control group (145 ± 5 bpm): DrHCN4 MO (136 ± 3 bpm, p = 0.509), DrHCN4L MO (141 ± 5 bpm, p = 0.921), and mixture of DrHCN4 MO and DrHCN4L MO (147 ± 7 bpm, p = 0.991) (Figure 6B and Table 6).
(§2) FIGURE 6 Effects of HCN4 channel knockdown on zebrafish. (A) Expression of DrHCN4 and DrHCN4L in one (1), three (3), and seven (7) day embryos/larvae as well as in the heart (H) and brain (B) of adult fish was confirmed by RT-PCR. Arrows indicate the DNA ladder markers of 1,000 bp and 500 bp. (B) Heart rates at 24, 48, and 72 h are shown in bar graphs for 200 μM MO-injected zebrafish embryos: control MO (n = 20), DrHCN4 MO (n = 10), DrHCN4L MO (n = 10), and mixed DrHCN4 and DrHCN4L MO (n = 10). Statistical analysis was performed by Dunnett’s test. (C) Representative examples of zebrafish injected with control MO, DrHCN4 MO, DrHCN4L MO, and mixed DrHCN4 and DrHCN4L MO. […] Bar, 200 μm. (D) Ratios of normal embryos, pericardial edema, and death at 48 h after injection of 200 µM MO: control MO (n = 136), DrHCN4 MO (n = 75), DrHCN4L MO (n = 34), and mixed DrHCN4 and DrHCN4L MO (n = 30). (E) Pericardial edema and death ratios at 72 h after injection of 200 µM MO. Control MO (n = 136), DrHCN4 MO (n = 75), DrHCN4L MO (n = 34), and mixed DrHCN4 and DrHCN4L MO (n = 30).

[2] = system: zebrafish embryos; assay: Incidence of pericardial edema in MO-injected zebrafish embryos; assay type: in vivo, zebrafish (Danio rerio); settings: embryos surviving first 24 h
Procedure: as §1, §2
Pericardial edema is often observed in embryonic zebrafish with heart failure ([Narumanchi et al., 2021]). We determined the incidence of edema in zebrafish injected with 200 μM MO. We only examined zebrafish embryos that survived for the first 24 h after MO injection, and the rates of edema occurrence were determined at 48 and 72 h after injection. […] After 72 h, the proportions of embryos with edema increased to 79, 94, and 87% (Figure 6E).

[3] = system: adult zebrafish; parameters: method as in Marchant and Farrell, 2019; settings: intraperitoneal injection, depending on test temperatures, ref Marchant and Farrell, 2019; cited from earlier work
[4] = system: developing zebrafish embryos; assay: Antisense morpholino knockdown: heart rate of zebrafish embryos; assay type: in vivo, zebrafish (Danio rerio); settings: Supplementary Figure S2, 52 hpf
[5] = 48 h after injection of 200 μM MO
[6] = 72 h after injection of 200 μM MO

Compound	Heart rate ([1]; 24 h after MO injection)	Heart rate ([1]; 48 h after MO injection)	Heart rate ([1]; 72 h after MO injection)	Embryos showing pericardial edema [2, 5]	Embryos showing pericardial edema [2, 6]	Reduction of maximum heart rate [3]	Effect of injection on heart rate [4]
5′-GGCGACGCTGGCTGAAAAATAGGTC -3′ (all phosphorodiamidate morpholino (PMO)) [DrHCN4L MO, Morpholino antisense oligo against DrHCN4L (Gene Tools)]	45 ± 2 bpm	111 ± 1 bpm	141 ± 5 bpm	62%	94%	–	–
COc1ccc(CCN(C)CCCN2CCc3cc(OC)c(OC)cc3CC2=O)cc1OC [zatebradine]	–	–	–	–	–	38–65%	–
5′-GTAATTACTGCCACCGTGCACCACA-3′ (all phosphorodiamidate morpholino (PMO)) [DrHCN4 MO, Morpholino antisense oligo against DrHCN4 (Gene Tools)]	44 ± 2 bpm	110 ± 3 bpm	136 ± 3 bpm	59%	79%	–	–
5′-CCTCTTACCTCAGTTACAATTTATA -3′ [Control MO]	54 ± 1 bpm	135 ± 4 bpm	145 ± 5 bpm	–	–	–	did not affect heart rate
